Experimental data published in patent US20220088016A1, “CANCER TREATMENT USING MULTI-TARGETED KINASE INHIBITOR IN COMBINATION OF PROTEIN KINASE BIOMARKERS” (ZHEJIANG CROWNMAB BIOTECH CO. LTD., priority 2019, published 2022).

Experiments:
Test in all cases: Kinase profiling
Type in all cases: binding
Details in all cases: read-out: % Ctrl @ 1000 nM
PKN1 = PKN1 (Homo sapiens, UniProt Q16512)
LATS2 = LATS2 (Homo sapiens, UniProt Q9NRM7)
DAPK3 = DAPK3 (Homo sapiens, UniProt O43293)
CDC2L1 = CDC2L1 (Homo sapiens, UniProt P21127)
EPHA6 = EPHA6 (Homo sapiens, UniProt Q9UF33)
TNIK = TNIK (Homo sapiens, UniProt Q9UKE5)
Chain of TNIK (Q9UKE5 whole entry): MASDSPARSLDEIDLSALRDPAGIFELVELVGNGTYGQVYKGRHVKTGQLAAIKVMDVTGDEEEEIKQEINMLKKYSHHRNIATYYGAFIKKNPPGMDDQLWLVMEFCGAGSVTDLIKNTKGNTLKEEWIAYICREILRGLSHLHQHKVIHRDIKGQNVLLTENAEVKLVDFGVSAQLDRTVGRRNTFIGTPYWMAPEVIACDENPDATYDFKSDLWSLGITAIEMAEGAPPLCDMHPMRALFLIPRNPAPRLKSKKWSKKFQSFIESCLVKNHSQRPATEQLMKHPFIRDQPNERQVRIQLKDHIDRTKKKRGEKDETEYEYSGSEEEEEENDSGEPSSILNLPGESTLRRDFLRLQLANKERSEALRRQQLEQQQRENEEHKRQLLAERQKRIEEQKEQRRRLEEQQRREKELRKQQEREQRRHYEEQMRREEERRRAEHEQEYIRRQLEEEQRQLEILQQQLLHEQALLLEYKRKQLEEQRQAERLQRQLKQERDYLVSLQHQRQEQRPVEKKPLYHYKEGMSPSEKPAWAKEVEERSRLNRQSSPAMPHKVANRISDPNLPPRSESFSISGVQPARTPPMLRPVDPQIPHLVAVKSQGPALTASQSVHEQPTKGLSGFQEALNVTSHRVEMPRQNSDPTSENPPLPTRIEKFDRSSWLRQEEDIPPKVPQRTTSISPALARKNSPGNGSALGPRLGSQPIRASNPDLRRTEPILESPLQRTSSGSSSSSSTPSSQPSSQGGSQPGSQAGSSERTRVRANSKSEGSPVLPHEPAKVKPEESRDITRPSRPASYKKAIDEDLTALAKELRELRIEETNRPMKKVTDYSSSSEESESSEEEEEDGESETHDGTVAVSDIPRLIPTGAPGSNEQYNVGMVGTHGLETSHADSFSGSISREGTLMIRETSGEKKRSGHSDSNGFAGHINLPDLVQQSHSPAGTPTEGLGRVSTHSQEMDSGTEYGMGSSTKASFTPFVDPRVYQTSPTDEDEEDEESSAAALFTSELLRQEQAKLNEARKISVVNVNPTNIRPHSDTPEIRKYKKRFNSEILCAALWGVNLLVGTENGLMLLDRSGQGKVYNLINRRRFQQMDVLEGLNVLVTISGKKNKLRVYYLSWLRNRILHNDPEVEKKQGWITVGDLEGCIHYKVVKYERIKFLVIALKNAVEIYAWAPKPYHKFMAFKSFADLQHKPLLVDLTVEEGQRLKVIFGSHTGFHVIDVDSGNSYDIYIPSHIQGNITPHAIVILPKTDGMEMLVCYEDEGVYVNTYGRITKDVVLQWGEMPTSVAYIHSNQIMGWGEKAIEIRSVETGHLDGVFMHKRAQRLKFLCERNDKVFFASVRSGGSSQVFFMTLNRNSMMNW

ZAP70 = ZAP70 (Homo sapiens, UniProt P43403)
AMPK-alpha1 = AMPK-alpha1 (Homo sapiens, UniProt Q13131)
Chain of AMPK-alpha1 (Q13131 whole entry): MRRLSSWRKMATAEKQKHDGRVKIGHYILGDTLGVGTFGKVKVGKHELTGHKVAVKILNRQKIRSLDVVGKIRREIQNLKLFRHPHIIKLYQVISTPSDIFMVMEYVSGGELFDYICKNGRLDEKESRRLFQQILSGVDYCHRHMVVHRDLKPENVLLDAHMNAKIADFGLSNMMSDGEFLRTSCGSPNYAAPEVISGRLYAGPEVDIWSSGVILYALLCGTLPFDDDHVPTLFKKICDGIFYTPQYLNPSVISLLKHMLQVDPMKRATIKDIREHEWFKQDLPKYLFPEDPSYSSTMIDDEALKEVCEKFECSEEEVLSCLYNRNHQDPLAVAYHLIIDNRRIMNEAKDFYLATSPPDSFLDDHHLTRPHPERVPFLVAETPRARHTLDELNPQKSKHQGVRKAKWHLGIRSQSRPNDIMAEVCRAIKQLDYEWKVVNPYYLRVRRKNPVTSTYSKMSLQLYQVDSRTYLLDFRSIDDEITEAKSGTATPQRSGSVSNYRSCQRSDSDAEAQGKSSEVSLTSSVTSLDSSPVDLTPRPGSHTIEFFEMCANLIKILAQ

MARK3 = MARK3 (Homo sapiens, UniProt P27448)
MST1 = target: T1, MST1 (Homo sapiens, UniProt Q13043)
T1 construct: T7 phage fusion (stated for most kinases of the panel only); made in house; host or cells: T7 phage in E. coli (BL21-derived) or HEK-293 cells

TLK2 = TLK2 (Homo sapiens, UniProt Q86UE8)
SGK2 = SGK2 (Homo sapiens, UniProt Q9HBY8)
CAMK2B = CAMK2B (Homo sapiens, UniProt Q13554)
EGFR (G719C) = EGFR (G719C) (Homo sapiens, UniProt P00533, G719C)
Chain of EGFR (G719C) (P00533 25-1210 G719C): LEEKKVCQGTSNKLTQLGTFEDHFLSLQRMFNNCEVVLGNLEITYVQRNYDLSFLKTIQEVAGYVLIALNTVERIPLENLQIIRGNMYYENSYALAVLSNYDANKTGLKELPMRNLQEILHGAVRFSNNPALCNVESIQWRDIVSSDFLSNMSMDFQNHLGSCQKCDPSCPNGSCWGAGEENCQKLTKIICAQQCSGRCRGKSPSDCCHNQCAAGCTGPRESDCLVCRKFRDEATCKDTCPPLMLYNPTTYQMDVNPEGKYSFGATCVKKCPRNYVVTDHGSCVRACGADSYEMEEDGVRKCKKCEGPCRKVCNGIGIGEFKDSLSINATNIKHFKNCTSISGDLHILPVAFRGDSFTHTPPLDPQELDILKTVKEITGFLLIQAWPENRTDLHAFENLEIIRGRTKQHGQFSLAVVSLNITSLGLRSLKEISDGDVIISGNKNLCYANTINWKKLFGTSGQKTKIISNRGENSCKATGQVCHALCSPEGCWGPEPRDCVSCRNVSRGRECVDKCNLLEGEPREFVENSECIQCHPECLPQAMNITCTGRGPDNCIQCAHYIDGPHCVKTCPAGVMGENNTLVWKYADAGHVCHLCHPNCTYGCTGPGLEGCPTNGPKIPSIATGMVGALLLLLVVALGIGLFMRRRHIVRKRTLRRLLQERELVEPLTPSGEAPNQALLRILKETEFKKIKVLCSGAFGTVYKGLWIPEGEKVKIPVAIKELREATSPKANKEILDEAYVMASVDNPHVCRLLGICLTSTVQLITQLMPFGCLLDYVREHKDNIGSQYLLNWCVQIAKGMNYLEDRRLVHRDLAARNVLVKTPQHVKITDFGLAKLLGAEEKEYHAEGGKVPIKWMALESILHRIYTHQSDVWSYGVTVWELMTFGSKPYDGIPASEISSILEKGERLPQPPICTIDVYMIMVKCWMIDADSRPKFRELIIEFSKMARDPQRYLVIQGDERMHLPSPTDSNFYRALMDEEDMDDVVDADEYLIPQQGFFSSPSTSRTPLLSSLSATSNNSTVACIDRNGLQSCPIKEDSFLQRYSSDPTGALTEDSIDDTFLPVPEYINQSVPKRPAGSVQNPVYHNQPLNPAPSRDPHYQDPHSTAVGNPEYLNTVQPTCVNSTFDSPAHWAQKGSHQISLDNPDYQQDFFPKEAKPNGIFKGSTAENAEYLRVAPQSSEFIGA

ABL1-nonphosphorylated = ABL1-nonphosphorylated (Homo sapiens, UniProt P00519)
FLT3 = FLT3 (Homo sapiens, UniProt P36888)
[1] = target: RSK3 (Kin.Dom.2-C-terminal) (Homo sapiens, UniProt Q15349)
Chain of RSK3 (Kin.Dom.2-C-terminal) (Q15349 415-672 limits assumed): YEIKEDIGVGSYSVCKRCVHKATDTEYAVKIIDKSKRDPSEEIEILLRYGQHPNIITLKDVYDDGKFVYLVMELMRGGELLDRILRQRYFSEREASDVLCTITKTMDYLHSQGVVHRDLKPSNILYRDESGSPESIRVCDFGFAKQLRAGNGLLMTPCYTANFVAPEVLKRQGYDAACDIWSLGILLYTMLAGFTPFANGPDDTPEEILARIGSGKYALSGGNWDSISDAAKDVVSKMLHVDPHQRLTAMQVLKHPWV

KIT (D816H) = KIT (D816H) (Homo sapiens, UniProt P10721, D816H)
Chain of KIT (D816H) (P10721 26-976 D816H): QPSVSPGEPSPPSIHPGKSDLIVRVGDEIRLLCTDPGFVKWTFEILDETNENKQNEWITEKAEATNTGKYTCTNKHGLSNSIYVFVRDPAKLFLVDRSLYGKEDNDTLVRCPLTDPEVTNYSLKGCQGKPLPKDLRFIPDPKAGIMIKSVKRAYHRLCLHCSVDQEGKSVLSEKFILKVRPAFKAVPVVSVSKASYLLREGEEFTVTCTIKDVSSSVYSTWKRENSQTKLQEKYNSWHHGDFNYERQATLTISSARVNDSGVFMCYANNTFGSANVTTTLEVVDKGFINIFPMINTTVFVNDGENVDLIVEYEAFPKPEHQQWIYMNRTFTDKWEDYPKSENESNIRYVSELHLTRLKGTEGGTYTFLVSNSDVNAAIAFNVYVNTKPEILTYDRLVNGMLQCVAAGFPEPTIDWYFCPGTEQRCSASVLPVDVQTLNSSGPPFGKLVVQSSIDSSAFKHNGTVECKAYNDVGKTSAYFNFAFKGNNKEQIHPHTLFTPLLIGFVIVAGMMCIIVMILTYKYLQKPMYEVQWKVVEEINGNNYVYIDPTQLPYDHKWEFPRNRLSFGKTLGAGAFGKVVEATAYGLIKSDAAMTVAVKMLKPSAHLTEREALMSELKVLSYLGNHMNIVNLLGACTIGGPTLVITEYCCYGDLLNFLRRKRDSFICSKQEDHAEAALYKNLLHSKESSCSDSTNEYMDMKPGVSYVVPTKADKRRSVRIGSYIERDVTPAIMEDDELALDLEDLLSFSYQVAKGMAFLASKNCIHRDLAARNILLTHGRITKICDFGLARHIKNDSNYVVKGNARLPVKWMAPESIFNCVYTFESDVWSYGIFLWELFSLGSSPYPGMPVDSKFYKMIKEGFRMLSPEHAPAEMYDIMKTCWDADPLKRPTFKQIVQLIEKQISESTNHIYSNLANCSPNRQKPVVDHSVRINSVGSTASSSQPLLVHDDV

CLK1 = CLK1 (Homo sapiens, UniProt P49759)
GRK1 = GRK1 (Homo sapiens, UniProt Q15835)
[2] = target: RSK1 (Kin.Dom.2-C-terminal) (Homo sapiens, UniProt Q15418)
CDK3 = CDK3 (Homo sapiens, UniProt Q00526)
PLK1 = PLK1 (Homo sapiens, UniProt P53350)
IKK-epsilon = IKK-epsilon (Homo sapiens, UniProt Q14164)
WNK3 = WNK3 (Homo sapiens, UniProt Q9BYP7)
PIK3CA (I800L) = PIK3CA (I800L) (Homo sapiens, UniProt P42336, I800L)
MKNK1 = target: T2, MKNK1 (Homo sapiens, UniProt Q9BUB5)
T2 construct: T7 phage fusion (stated for most kinases of the panel only); made in house; host or cells: T7 phage in E. coli (BL21-derived) or HEK-293 cells

TGFBR1 = TGFBR1 (Homo sapiens, UniProt P36897)
Chain of TGFBR1 (P36897 34-503): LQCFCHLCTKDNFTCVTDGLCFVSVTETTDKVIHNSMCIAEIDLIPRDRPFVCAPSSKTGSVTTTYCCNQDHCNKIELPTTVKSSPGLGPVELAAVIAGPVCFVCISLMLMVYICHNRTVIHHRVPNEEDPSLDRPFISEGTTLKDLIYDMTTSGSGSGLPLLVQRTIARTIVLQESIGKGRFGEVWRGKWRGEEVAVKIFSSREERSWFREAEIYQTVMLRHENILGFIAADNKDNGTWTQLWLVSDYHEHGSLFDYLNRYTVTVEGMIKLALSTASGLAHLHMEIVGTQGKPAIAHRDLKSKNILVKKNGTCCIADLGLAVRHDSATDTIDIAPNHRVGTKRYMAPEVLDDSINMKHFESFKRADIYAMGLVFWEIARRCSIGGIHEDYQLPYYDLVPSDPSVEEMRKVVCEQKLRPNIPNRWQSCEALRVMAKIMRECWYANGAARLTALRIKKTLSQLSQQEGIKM

[3] = target: ABL1 (H396P)-nonphosphorylated (Homo sapiens, UniProt P00519, H396P)
INSRR = INSRR (Homo sapiens, UniProt P14616)
SIK2 = SIK2 (Homo sapiens, UniProt Q9H0K1)
ZAK = ZAK (Homo sapiens, UniProt Q9NYL2)
PIK3CA (Q546K) = PIK3CA (Q546K) (Homo sapiens, UniProt P42336, Q546K)
STK39 = STK39 (Homo sapiens, UniProt Q9UEW8)
RET (V804M) = RET (V804M) (Homo sapiens, UniProt P07949, V804M)
KIT = KIT (Homo sapiens, UniProt P10721)
Chain of KIT (P10721 26-976): as the sequence (P10721 26-976 D816H) above, with H791D counted along it

PHKG2 = PHKG2 (Homo sapiens, UniProt P15735)
ERK2 = ERK2 (Homo sapiens, UniProt P28482)
VRK2 = VRK2 (Homo sapiens, UniProt Q86Y07)

## Cc1cc(Oc2cc(NC(=O)C3CC3)ncn2)ccc1NC(=O)Nc1ccc(Cl)c(C(F)(F)F)c1 [CBT-102]
PKN1
  remaining activity at 1 µM: 100%
LATS2
  remaining activity at 1 µM: 100%
DAPK3
  remaining activity at 1 µM: 96%
CDC2L1
  remaining activity at 1 µM: 36%
EPHA6
  remaining activity at 1 µM: 2.7%
TNIK
  remaining activity at 1 µM: 8.3%
ZAP70
  remaining activity at 1 µM: 90%
AMPK-alpha1
  remaining activity at 1 µM: 98%
MARK3
  remaining activity at 1 µM: 100%
MST1
  remaining activity at 1 µM: 100%
TLK2
  remaining activity at 1 µM: 100%
SGK2
  remaining activity at 1 µM: 92%
CAMK2B
  remaining activity at 1 µM: 97%
EGFR (G719C)
  remaining activity at 1 µM: 66%
ABL1-nonphosphorylated
  remaining activity at 1 µM: 3.3%
FLT3
  remaining activity at 1 µM: 2.3%
[1]
  remaining activity at 1 µM: 92%
KIT (D816H)
  remaining activity at 1 µM: 37%
CLK1
  remaining activity at 1 µM: 98%
GRK1
  remaining activity at 1 µM: 100%
[2]
  remaining activity at 1 µM: 94%
CDK3
  remaining activity at 1 µM: 90%
PLK1
  remaining activity at 1 µM: 95%
IKK-epsilon
  remaining activity at 1 µM: 100%
WNK3
  remaining activity at 1 µM: 100%
PIK3CA (I800L)
  remaining activity at 1 µM: 91%
MKNK1
  remaining activity at 1 µM: 100%
TGFBR1
  remaining activity at 1 µM: 100%
[3]
  remaining activity at 1 µM: 20%
INSRR
  remaining activity at 1 µM: 100%
SIK2
  remaining activity at 1 µM: 100%
ZAK
  remaining activity at 1 µM: 5.5%
PIK3CA (Q546K)
  remaining activity at 1 µM: 100%
STK39
  remaining activity at 1 µM: 100%
RET (V804M)
  remaining activity at 1 µM: 3.3%
KIT
  remaining activity at 1 µM: 0%
PHKG2
  remaining activity at 1 µM: 87%
ERK2
  remaining activity at 1 µM: 97%
VRK2
  remaining activity at 1 µM: 100%
